Data set [1] is described as follows: Stability in plasma, whole blood, gastric fluid and intestinal fluid. It counts as in vitro ADME. Particulars: plasma or whole blood. As for the experimental part:
Ala-d4T-MP is stable both in plasma and in whole blood. […] This hypothesis is consistent with the formation of a significant amount of d4T after incubation of d4T-5′-[p-bromophenyl methoxyalaninyl phosphate] with a liver homogenate.
Orally administered d4T-5′-[p-bromophenyl methoxyalaninyl phosphate] also yielded Ala-d4T-MP and d4T as the major metabolites. […] This metabolite can be absorbed in the intestine and then further metabolized to yield d4T in the blood. The tmax and t1/2 values for d4T in mice were longer when derived from orally administered d4T-5′-[p-bromophenyl methoxyalaninyl phosphate] (42.4 minutes and 99.0 minutes, respectively) than from orally administered d4T (5 minutes and 18 minutes, respectively). The tmax value is higher but the t1/2 value is lower for orally administered d4T-5′-[p-bromophenyl methoxyalaninyl phosphate] compared to intravenously administered d4T-5′-[p-bromophenyl methoxyalaninyl phosphate]. […] However, the bioavailability of d4T metabolized from d4T-5′-[p-bromophenyl methoxyalaninyl phosphate] (48%) was lower than that of orally administered d4T (98%).

Data set [2] in a line: Pharmacokinetics after intravenous or oral administration. Type of data set: in vivo, mice. The following applies: intravenous administration.
Data set [3] in a line: Microculture tetrazolium assay (MTA) cytotoxicity in CEM cells. Particulars: human. As for the experimental part: (§1) Percent inhibition of viral replication was calculated by comparing the p24 and RT activity values from the test substance-treated infected cells with those from untreated infected cells. In parallel, the cytotoxicity of the compounds was examined using a microculture tetrazolium assay (MTA) of cell proliferation, as described.in the Zarling, Enrice, and Uckun articles Supra).
(§2) Cellular Assays of Anti-HIV Activity and Cytotoxicity. […] Percent viral inhibition was calculated by comparing the RT activity values from the test substance-treated infected cells with RT values from untreated infected cells (i.e., virus controls).

Data set [4] can be described thus: Microculture tetrazolium assay (MTA) cytotoxicity in PBMNC. The following applies: human. As for the experimental part: as §1, §2
(§3) Antiviral susceptibility assays. Phenotypic drug susceptibility studies of HIV-1 isolates and strains were performed by measuring the production of the p24 gag protein in peripheral blood mononuclear cells (PBMC) from seronegative healthy volunteers in the presence of increasing concentrations of the anti-HIV agent using the quantitative Coulter HIV-1 p24 antigen ezyme immunoassay (EIA) and HIV-1 p24 Antigen Kinetic Standard (Beckman Coulter), as previously described (Uckun, 1998, Antimicrobial Agents and Chemotherapy 37(4): 835-38). Informed consent was obtained from the blood donors according to DHHS guidelines using consent forms approved by the Institutional Review Board. In brief, PBMC were cultured for 72 h in RPMI 1640 medium (Gibco) supplemented with 20% (vol/vol) heat-inactivated fetal bovine serum, 5% human interleukin-2 (Zeptometrix), 2 mM L-glutamine, 25 mM HEPES, 2 g/L NaHCO3, 100 U/ml penicillin/streptomycin (Gibco), 50 μg/ml gentamicin (Gibco), and 5 μg/ml phytohemagglutinin-P (PHA-P) (Sigma) for 24-72 hours prior to exposure to HIV at a multiplicity of infection of 0.001-0.1 during a 1-h adsorbtion period at 37±1° C. in a humidified 5-7% CO2 atmosphere. Subsequently, cells were cultured in 96-well microtiter plates (100 μl/well; 2×10^6 cells/ml, triplicate wells) in the presence of the anti-HIV agents at 6-7 different concentrations ranging from 0.0001 μM to 100 μM, and 25 μL aliquots of culture supernatants were removed from the wells on day 6 after infection for p24 EIA, as previously described (Uckun, 1998, Antimicrobial Agents and Chemotherapy, 37(4):835-38). Controls included uninfected and untreated cells (background control) and infected but untreated (virus control) cells. The p24 EIA utilizes a murine monoclonal antibody to HIV core protein used to coat microwell strips to which the antigen present in the test culture supernatant samples binds. Percent inhibition of viral replication was calculated by comparing the p24 values from the test substance-treated infected cells with p24 values from untreated infected cells (i.e., virus controls). The IC50 values were determined using the Statview statistics program (SAS Institute, Inc.). In parallel, the effects of various treatments on cell viability were also examined as previously described (Uckun, 1998, Antimicrobial Agents and Chemotherapy, 42:383-388). In brief, noninfected PBMC were treated with each compound for 5 days under identical experimental conditions. A microculture tetrazolium assay (MTA) was performed to quantitate cellular proliferation (Uckun, 1998, Antimicrobial Agents and Chemotherapy, 42:383-388).
In parallel, the cytotoxicity of the compounds was examined using a microculture tetrazolium assay (MTA) of cell proliferation, as described (in the Zarling, Enrice, and Uckun articles Supra).

Data set [5] concerns AZT- and NNI-resistant HIV-1 (strain: RTMDR-1). As to the kind of experiment: Inhibition of RTMDR-1 (HIV-MDR) replication in PBMNC (RT activity). It counts as cell-based. Here is the method:
as §2

In data set [6] the test system is HIV-1 (HTLVIIIB) in TK-deficient CEM T-cells. As to the kind of experiment: Inhibition of HIV-1 replication in TK-deficient CEM T-cells (p24 / RT activity). Type of data set: cell-based. Here is the method: as §1, §2
In a further data set the test system is HIV-1 (strain: HTLVIIIB). As to the kind of experiment: microbe, parasite or virus in culture. Type of data set: cell-based. Particulars: Human immunodeficiency virus 1, read-out: PBMNC IC50 [RT], PBMNC; unit not given in Table 5 (0.04 = 40 nM). As for the experimental part: as §1, §2
In another data set the test system is HIV-2 (Strain: CBL-20). As to the kind of experiment: Inhibition of HIV-2 replication in PBMNC (RT activity). It counts as cell-based. Here is the method:
(P-AZT) and with AZT. The incubation and analysis methods used were as described above for Example 3.
as §2

The test system of a further data set is HIV-1 HTLVIIIB
The data set is described as follows: microbe, parasite or virus in culture. As for the experimental part: In vitro assays of anti-HIV-1 activity. Normal human peripheral blood mononuclear cells (PBMNC) from HIV-negative donors were cultured 72 hours in RPMI 1640 supplemented with 20% (v/v) heat-inactivated fetal bovine serum (FBS), 3% interleukin-2, 2 mM L-glutamine, 25 mM HEPES, 2 g/L NaHCO3, […], and […] prior to exposure to HIV-1 at a multiplicity of infection (MOI) of 0.1 during a 1 hour adsorption period at 37° C. in a humidified 5% CO2 atmosphere. Subsequently, cells were cultured in 96-well microtiter plates ([…]; 2×10^6 cells/mL) in the presence of various concentrations of d4T phosphoramidates and aliquots of culture supernatants were removed from the wells on the 7th day after infection for p24 antigen assays, as previously described (Uckun et al., 1998, Antimicrobial Agents and Chem., 42(2):383-388). The applied p24 enzyme immunoassay (EIA) was the unmodified kinetic assay commercially available from Coulter Corporation/Immunotech, Inc. (Westbrooke, Me.), which utilizes a murine mAb to HIV core protein coated onto microwell strips to which the antigen present in the test culture supernatant samples binds. Percent viral inhibition was calculated by comparing the p24 values from untreated infected cells (i.e., virus controls).
The anti-HIV activity of the compounds was examined by evaluating their ability to inhibit HIV replication in peripheral blood mononuclear cells using previously described procedures (Uckun et al., 1998, Antimicrobial Agents and Chem., 42(2):383-388). Percent inhibition of viral replication was calculated by comparing the p24 antigen levels from the test substance-treated infected cells with those from vehicle-treated infected cells.
as §3, with “Inc.).” for “Inc.). In parallel, the effects of various treatments on cell viability were also examined as previously described (Uckun, 1998, Antimicrobial Agents and Chemotherapy, 42:383-388). In brief, noninfected PBMC were treated with each compound for 5 days under identical experimental conditions. A microculture tetrazolium assay (MTA) was performed to quantitate cellular proliferation (Uckun, 1998, Antimicrobial Agents and Chemotherapy, 42:383-388).”

Where [7] appears, read: Human immunodeficiency virus 1, PBMC.

The structures appear in SMILES notation. Where two headings read alike, the source gives them in different places. Some results are limits rather than exact numbers.

`Cc1cn([C@H]2C=C[C@@H](COP(=O)(O)NC(C)C(=O)O)O2)c(=O)[nH]c1=O` (stereo partly drawn) [Ala-d4T-MP, alaninyl-d4T-monophosphate]: the “stability in plasma and whole blood” value in data set [1] is “stable”. For the same molecule, the “elimination half-life (t1/2) of the administered substance” value in [2] is 28.5 min.
A word on the IC50: it is the concentration needed to halve the response being measured. Turning to `COC(=O)C(C)NP(=O)(OC[C@H]1O[C@@H](n2cc(C)c(=O)[nH]c2=O)CC1N=[N+]=[N-])Oc1ccc(Br)cc1` (stereo partly drawn) [Compound 5c, AZT-5′-(para-bromophenylmethoxyalaninyl phosphate)], the IC50 in data set [3] was above 10000 nM; in [5] (Human immunodeficiency virus 1, read-out: HIV-MDR IC50 [RT]) it was 1500 nM; in [5] (Human immunodeficiency virus 1, read-out: IC50 against HIV-MDR), 1500 nM; in [5] (Human immunodeficiency virus 1, read-out: RTMDR-1 IC50 [RT]), 1500 nM; in data set [6] (Human immunodeficiency virus 1, CCRF-CEM, TK-deficient CEM cells, read-out: IC50 value for inhibition of RT activity) it was 40 nM; in [6] (Human immunodeficiency virus 1, T-cell, TK-deficient CEM T-cells, Table 5, read-out: CEM IC50 [RT]), 40 nM. The half-maximal inhibitory concentration (IC50) in the data set on HIV-1 (strain: HTLVIIIB) amounted to 4 nM; in the data set on HIV-2 (Strain: CBL-20) (Human immunodeficiency virus 2, read-out: HIV-2 IC50 [RT]), 3900 nM. In [4], the IC50 at 5 days is above 10000 nM. Besides, in data set [5] (PBMNC), the “antiviral activity against RTMDR-1 (in words)” value is “not effective”. In addition, the “times more effective than AZT in inhibiting HIV replication” value in data set [6] (TK-deficient CEM cells) is 5 times. In addition, the “antiviral activity against HIV-2 (in words)” value in the data set on HIV-2 (Strain: CBL-20) (PBMNC) is “not effective”.
In general, IC90 refers to the point of the concentration-response curve where the effect stands at 90%. A high value points to a need for much substance. With `Cc1c(O)cccc1C(=O)N[C@@H](CSc1ccccc1)[C@H](O)CN1C[C@H]2CCCC[C@H]2C[C@H]1C(=O)NC(C)(C)C` [nelfinavir], in data set [4], the CC50 at 5 days was 3500 ± 1400 nM. The “SI(CC50/IC50)” value in the data set with HIV-1 HTLVIIIB was determined as 583. Also, in the data set with HIV-1 HTLVIIIB (setting [7]), 6 ± 3 nM corresponded to half-maximal inhibition (IC50) and it took 84 ± 38 nM to reach the 90% level (IC90).

Values taken from US20070015733A1, “Aryl Phosphate Derivatives of d4T having Activity Against Resistant HIV Strains” (Parker Hughes Institute, priority 1998, published 2007).
